Laboratory results taken from patent US20250319067A1, “Improved Pharmacokinetics of Tryptamine Prodrugs” (Reunion Neuroscience, Inc., priority 2023, published 2025).

What was measured:
rats = test: GLP 14-day extended single SC dose toxicity study in rats
Description: (§1) In a GLP 14-day extended single SC dose toxicity study in rats, doses of 0 (PBS), 10, 25 and 75 mg/kg were evaluated. Animals were necropsied on Study Day 2 and Day 14 (also referred to as Recovery Day 13) post-dosing.
(§2) A non-GLP dose range study was performed in the dog in order to determine an MTD. Single SC doses of 7.5, 15 and 20 mg/kg were evaluated.

[1] = as above; conditions: rat; for NOAEL at 14 days: in vivo
Description: as §1, §2

healthy females = test: Phase 1 FIH study: Mystical Experience Questionnaire (MEQ30); format: in vivo, human
Description: The study was a double-blind, randomized, placebo-controlled Phase 1 single ascending dose study in up to 6 cohorts in healthy females. Eligibility was assessed during a screening period of up to 28 days prior to enrollment. For the treatment period, subjects were admitted to the clinical research unit (CRU) one day prior to the dosing (Day −1). On Day 1, all subjects will received the assigned SC dose of RE104 HCl or placebo in a fed state (after domiciling overnight and consuming a planned evening meal on Day −1 and morning meal on Day 1 while at the CRU). Subjects were allowed to select snacks from a planned menu from 4 hours following dosing. Subjects were discharged from the clinic on Day 2 (−24 hours post-dose) after all required study procedures were completed and if deemed medically fit. Subjects returned to the clinic on Day 10 (±2 days) for a follow up visit.
The Mystical Experience Questionnaire (MEQ30) is a validated questionnaire that assesses individual episodes of a mystical experience produced by classic hallucinogens (Barrett et al. 2015). The validated MEQ30 uses thirty questions across 4 areas of experience: (i) Mystical (including items concerning internal unity, external unity, noetic quality, and sacredness); (ii) Positive mood; (iii) Transcendence of time and space; and (iv) Ineffability. The subjects will be asked to rate each item of the MEQ30 on a 6-point scale. FIG. 3 sets out the revised MEQ30 that was used.

[2] = Rat PK after single IV or SC RE104 HCl 2 mg/kg (Example 1); conditions: plasma, sc, 2 mg/kg
human hepatocytes = test: Hepatocyte intrinsic clearance, human; format: in vitro ADME
From the text: (§3) In human, rat, rabbit, dog and monkey hepatocytes, the metabolite profile of RE104 was qualitatively similar across these species with only minor differences.

rat hepatocytes = test: Hepatocyte intrinsic clearance, rat; format: in vitro ADME
From the text: as §3

[3] = biological target: T1, human recombinant 5-HT2A receptors (Homo sapiens, UniProt P28223); test: 5-HT2A cellular agonist effect assay (IP1, HTRF); format: cell-based; set-up: host or cells: HEK-293
Description: Activation was calculated as a percentage of the response to the positive control (10 μM 5-HT).
EC50 and IC50 values were determined by nonlinear regression analysis of the concentration-response curves generated with mean replicate values using Hill equation curve fitting. For all receptor pharmacology assays, data were analyzed with software developed at Cerep (Hill software, Celle-Lévescault, France) and validated by comparison with data generated by the commercial software SigmaPlot® 4.0 for Windows®(01997 by SPSS Inc).

in vivo = conditions: male, beagle, dog, plasma
Description: Two consecutive doses were separated by z7 days. Plasma samples were analyzed using an LC-MS/MS method (lower limit of quantification of 1.00 ng/mL for both analytes).
(§4) Pharmacokinetic parameters were calculated using Phoenix WinNonlin, version 6.3 or 8.2 (Certara, Princeton, NJ, USA).
For dog PK assessments, approximately 0.5 mL of blood was collected via superficial vein before dose and at 5 (for IV and SC injections only), 15, and 30 minutes and 1, 2, 4, 8, 16, 24, 48, and 72 hours post dose into tubes containing K2EDTA with 10 mM Dichlorvos as the anticoagulant and stabilizer, respectively.

[4] = Prodrug cleavage in mouse plasma; format: in vitro ADME; conditions: 37° C.
Description: Mean values from 3 replicate assays are reported. See the Supplemental Methods for additional details.
Triplicate aliquots (50 μL) of each spiked plasma solution were immediately added to 200 μL of ice-cold methanol/acetonitrile solution (50:50 v/v) containing the internal standards to generate time zero samples. Spiked plasma solutions were incubated at 37° C. in an orbital shaker set to 75 rpm, and 50-μL samples were taken in triplicate after 30 minutes and 1, 2, and 4 hours of incubation. Each sample was immediately added to 200 μL ofice-cold methanol/acetonitrile solution containing the internal standard(s) to terminate the reaction. Samples were mixed by vortex and then stored at −80° C. until analysis.
Calibration standards were prepared in plasma for each species and analyzed in batches by LC-MS/MS. Sample batches consisted of 3 replicates of a system suitability standard (containing the analyte and internal standard), the appropriate calibration standards in ascending order including a blank sample without internal standard, a zero sample (with internal standard), and at least 6 nonzero standards and the assay samples, followed by the 3 replicates of the system suitability sample.

[5] = Rat plasma PK after IV, PO, SC RE104 or 4-OH-DiPT (Example 3); conditions: 2 mg/kg RE104 IV, vs AUC0-- of equimolar IV 4-OH-DiPT
Description: The concentration of test compounds was determined in plasma by LC-MS/MS. […] Pharmacokinetic parameters for each analyte and route of administration were estimated from the plasma concentration-versus-time curves for each animal. Head-twitch response (HTR), also referred to as wet dog shakes, was assessed by observing rats for automatisms consisting of rapid and alternating head rotations (González-Maeso et al. and Halberstadt et al.); HTRs were manually counted using 10-minute intervals up to 2 hours after dosing and again at 3, 3.5, and 4 hours after dosing.
as §4
For rat PK assessments, approximately 0.25 mL blood was serially collected at 8 time points over 6 hours (5, 15, 30, and 45 minutes, and 1, 2, 4, and 6 hours after dosing) via a surgically placed carotid artery catheter and immediately transferred to tubes containing K2EDTA on ice. For dog PK assessments, approximately 0.5 mL of blood was collected via superficial vein before dose and at 5 (for IV and SC injections only), 15, and 30 minutes and 1, 2, 4, 8, 16, 24, 48, and 72 hours post dose into tubes containing K2EDTA with 10 mM Dichlorvos as the anticoagulant and stabilizer, respectively. […]

dog hepatocytes = test: Hepatocyte intrinsic clearance, dog; format: in vitro ADME
From the text: as §3

[6] = biological target: T1, human recombinant 5-HT2A receptors; test: 5-HT2A agonist radioligand binding assay ([125I]DOI)
Description: Increasing concentrations of RE104 were incubated with 0.2 nM [^125I]DOI in CHO cell cultures expressing human recombinant 5-HT2B receptors.
Radioligand concentration was measured by scintillation counting; compound binding was calculated as percent inhibition of the binding of [^125I]DOI. In agonist activity assays, test concentrations of RE104 were incubated with HEK-293 cells expressing human recombinant 5-HT2A receptors; IP1 production was detected using homogeneous time-resolved fluorescence. Activation was calculated as a percentage of the response to the positive control (10 μM 5-HT).
Inhibition constants were calculated by using the Cheng-Prusoff equation Ki=IC50/(1+L/KD), where L=radioligand concentration and KD=radioligand affinity for the receptor (determined with a Scatchard plot). In the functional activity assay test concentrations of RE104 were 10 nM, 30 nM, 100 nM, 300 nM, 1 μM, 3 μM, 10 μM, and 30 μM. EC50 and IC50 values were determined by nonlinear regression analysis of the concentration-response curves generated with mean replicate values using Hill equation curve fitting.

[7] = GLP 14-day extended single SC dose toxicity study in dogs; conditions: beagle, dog, sc
dogs = test: as above
[8] = expressed as zwitterion, 60 kg human, BSA conversion

T1 sequence (P28223 whole entry): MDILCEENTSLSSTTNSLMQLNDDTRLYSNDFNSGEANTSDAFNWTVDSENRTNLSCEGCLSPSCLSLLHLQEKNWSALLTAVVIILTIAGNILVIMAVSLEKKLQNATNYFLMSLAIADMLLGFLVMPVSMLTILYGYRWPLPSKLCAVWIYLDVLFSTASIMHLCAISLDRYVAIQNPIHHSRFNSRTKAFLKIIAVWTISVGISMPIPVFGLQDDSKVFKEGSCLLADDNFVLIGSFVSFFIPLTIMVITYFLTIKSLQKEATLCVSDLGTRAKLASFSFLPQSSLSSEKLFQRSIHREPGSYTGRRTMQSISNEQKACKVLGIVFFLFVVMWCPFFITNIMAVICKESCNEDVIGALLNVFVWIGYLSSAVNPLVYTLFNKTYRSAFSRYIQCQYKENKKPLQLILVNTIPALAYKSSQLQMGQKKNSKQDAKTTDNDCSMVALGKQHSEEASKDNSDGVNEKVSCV

With `CC(C)N(CCc1c[nH]c2cccc(OC(=O)CCCC(=O)O)c12)C(C)C` [RE104] the “human equivalent dose [HED] of the 10 mg/kg rat dose” value (rats; [8]) was “approximately 97 mg”, the “low adverse effect level (LOAEL)” value (rats; male rats) was 10 mg/kg and the “1/10 of HED” value (rats; rat) was 0.16 mg/kg. For the same compound, the “1/10 of Human BSA dose” value (rats; rat) was 9.7 mg, the “Human BSA dose” value (rats; rat) was 60 mg/m^2 and the “fold HED higher than proposed starting dose” value (rats; rat HED vs 5 mg (zwitterion)) was “approximately 19 fold”. For the same compound, the “fold HED higher than maximum proposed dose” value (rats; rat HED vs 48 mg (zwitterion)) was about 2 fold, the HED (rats; rat NOAEL, BSA conversion factors) was 1.6 mg/kg and the “Human BSA dose” value (rats; rat, based on a BSA of 1.62 m^2) was 97.2 mg. It also gave an NOAEL at 14 days ([1]; Sprague Dawley, sc) of 10 mg/kg, a Cmax ([1]; Sprague Dawley, plasma, sc, 10 mg/kg) of 0.751 ng/mL and an NOAEL at 14 days ([1]; both, Sprague Dawley, sc) of 10 mg/kg. For the same compound, the NOAEL at 14 days ([1]; female, subcutaneous) was 10 mg/kg, the “Participants with MEQ total score ≥60%” value (healthy females; RE104 5.5 mg, n 6) was 0% and the “Participants with MEQ total score ≥60%” value (healthy females; RE104 11 mg, n 6) was 50%. For the same compound, the “Participants with MEQ total score ≥60%” value (healthy females; RE104 22 mg, n 6) was 16.7%, the “Participants with MEQ total score ≥60%” value (healthy females; RE104 33 mg, n 9) was 66.7% and the “Participants with MEQ total score ≥60%” value (healthy females; RE104 38 mg, n 6) was 83.3%. For the same compound, the “Participants with MEQ total score ≥60%” value (healthy females; RE104 44 mg, n 3) was 100%, the bioavailability [2] was about 100% and the “in vitro intrinsic clearance (CLint)” value (human hepatocytes) was 3.45 mL/hr/106 cells. The “in vitro intrinsic clearance (CLint)” value (rat hepatocytes) was 6.66 mL/hr/106 cells, the EC50 [3] was over 30 µM and the AUC(0-inf) (in vivo; po, 5 mg/kg) was 21.8 ng·h/mL. The AUC(0-t) (in vivo; po, 5 mg/kg) was 20 ng·h/mL, the Cmax (in vivo; po, 5 mg/kg) was 12.2 ng/mL and the Tmax (in vivo; po, 5 mg/kg) was 30 min. The bioavailability (in vivo; po, 5 mg/kg) was 0.854%, the half-life (in vivo; po, 5 mg/kg) was 78 min and the AUC(0-t) (in vivo; sc, 1 mg/kg) was 658 ng·h/mL. The completeness of conversion [4] was over 95%, the “time of conversion to 4-OH-DiPT” value [4] was under 30 min and the “fm (fraction metabolized)” value [5] was 96.7%. The “in vitro intrinsic clearance (CLint)” value (dog hepatocytes) was 0.87 mL/hr/106 cells, the IC50 [6] was 1.6 µM and the Ki ([6]; read-out: binding Ki at the 5-HT2A receptor, radioligand inhibition binding, HEK-293 cells) was 4.3 µM. For the same compound, the AUC(0-t) ([7]; plasma, 8 mg/kg) was 4540 ng·h/mL, the Cmax ([7]; plasma, 8 mg/kg) was 3300 ng/mL and the NOAEL at 14 days ([7]; both, in vivo) was 8 mg/kg. The “1/10 of HED” value (dogs; dog) was 0.44 mg/kg, the “1/10 of Human BSA dose” value (dogs; dog) was 25.9 mg and the “Human BSA dose” value (dogs; dog) was 160 mg/m^2. For the same compound, the “safety margin relative to proposed starting dose” value (dogs; dog HED vs 5 mg (zwitterion)) was “approximately 53 fold”, the “safety margin relative to proposed maximum dose” value (dogs; dog HED vs 48 mg (zwitterion)) was about 5 fold and the HED (dogs; dog NOAEL, BSA conversion factors) was 4.4 mg/kg. For the same compound, the “Human BSA dose” value (dogs; dog, based on a BSA of 1.62 m^2) was 259 mg and the “HED of 8 mg/kg in the dog” value (dogs; [8]) was “approximately 267 mg”.
